The target of data set [1] is human KOR receptor (Homo sapiens, UniProt P41145). The data set can be described thus: IP-One HTRF assay, potency of KOR agonists, dose-response in transiently transfected COS-7 cells. The data set is classed as cell-based. (In TR-FRET formats the signal depends on donor and acceptor labels being close together.)
Sequence of human KOR receptor (P41145 whole entry): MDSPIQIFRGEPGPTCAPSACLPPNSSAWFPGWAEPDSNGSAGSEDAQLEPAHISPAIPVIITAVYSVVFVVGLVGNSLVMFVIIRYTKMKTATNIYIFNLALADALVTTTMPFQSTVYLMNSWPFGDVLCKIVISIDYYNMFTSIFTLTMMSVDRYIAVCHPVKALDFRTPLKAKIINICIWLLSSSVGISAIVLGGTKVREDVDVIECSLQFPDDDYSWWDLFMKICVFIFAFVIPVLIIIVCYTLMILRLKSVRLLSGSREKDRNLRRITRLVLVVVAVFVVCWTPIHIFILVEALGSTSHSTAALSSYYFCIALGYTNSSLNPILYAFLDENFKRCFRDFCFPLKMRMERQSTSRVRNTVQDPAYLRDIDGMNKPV

As a reminder, the EC50 is the midpoint of the concentration-response curve. Read a low EC50 as an effect from little substance. What is called melting point is the temperature of the solid-liquid transition. For the compound `CN1C(=O)Cc2ccc(CC(=O)N(C)[C@H](CN3CCC(O)C3)c3cccc(-c4nn[nH]n4)c3)cc21` (stereo in doubt) [Example 111, N-((S)-1-(3-(2H-tetrazol-5-yl)phenyl)-2-((S)-3-hydroxypyrrolidin-1-yl)ethyl)-N-methyl-2-(1-methyl-2-oxoindolin-6-yl)acetamide], the melting point was 198 to 200 °C. In data set [1], this compound returned an EC50 of at most 50 nM.

Compound `CN(C(=O)Cc1ccc2c(c1)NC(=O)C2)[C@H](CN1CC[C@H](O)C1)c1ccccc1` [Example 1, N-((S)-2-((S)-3-hydroxypyrrolidin-1-yl)-1-phenylethyl)-N-methyl-2-(2-oxoindolin-6-yl)acetamide] showed a melting point of 166 to 168 °C. Besides, the EC50 in data set [1] lay in the range of 51 to 100 nM.

With `O=C(Cc1ccc2oc(=O)n(Cc3ccccc3)c2c1)N[C@H](CN1CCCC1)c1cccc(O)c1` [Example 20, (S)-2-(3-benzyl-2-oxo-2,3-dihydrobenzo [d]oxazol-5-yl)-N-(1-(3-hydroxyphenyl)-2-(pyrrolidin-1-yl)ethyl)acetamide], the melting point lay in the range of 104 to 106 °C. In data set [1], this compound came in with an EC50 of at most 50 nM.

In turn, `N#Cc1cccc(Cn2c(=O)oc3ccc(CC(=O)N[C@H](CN4CCCC4)c4ccccc4)cc32)c1` [Example 46, (S)-2-(3-(3-cyanobenzyl)-2-oxo-2,3-dihydrobenzo[d]oxazol-5-yl)-N-(1-phenyl-2-(pyrrolidin-1-yl)ethyl)acetamide] showed a melting point of 109 to 110 °C. In addition, in data set [1], the EC50 was at most 50 nM.

The compound `CN(C(=O)Cc1ccc2ccc(=O)[nH]c2c1)[C@H](CN1CCCC1)c1ccccc1` [Example 49, (S)-N-methyl-2-(2-oxo-1,2-dihydroquinolin-7-yl)-N-(1-phenyl-2-(pyrrolidin-1-yl)ethyl)acetamide] yielded a melting point of 170 to 172 °C. Also, the EC50 in data set [1] is at least 1000 nM.

Consider `O=C(Cc1ccc2oc(=O)[nH]c2c1)N[C@H](CN1CCCC1)c1ccccc1` [Example 56, (S)-2-(2-oxo-2,3-dihydrobenzo[d]oxazol-5-yl)-N-(1-phenyl-2-(pyrrolidin-1-yl)ethyl) acetamide], for which the melting point fell in the range of 129 to 130 °C. For the same compound, the concentration for a half-maximal effect (EC50) in data set [1] is at most 50 nM.

As for `O=C(Cc1ccc2oc(=O)[nH]c2c1)N[C@H](CN1CC[C@H](O)C1)c1ccccc1` [Example 57, N-((S)-2-((S)-3-hydroxypyrrolidin-1-yl)-1-phenylethyl)-2-(2-oxo-2,3-dihydrobenzo[d]oxazol-5-yl)acetamide], the melting point fell in the range of 210 to 211 °C. In data set [1], this compound came in with an EC50 of at most 50 nM.

In the case of `COc1ccc(COc2cccc([C@@H](CN3CCCC3)NC(=O)Cc3ccc4oc(=O)n(Cc5ccccc5)c4c3)c2)cc1` [Example 58, (S)-2-(3-benzyl-2-oxo-2,3-dihydrobenzo[d]oxazol-5-yl)-N-(1-(3-(4-methoxybenzyloxy)phenyl)-2-(pyrrolidin-1-yl)ethyl)acetamide], the melting point was in the range of 72 to 74 °C. The same compound came in with an EC50 in data set [1] of at most 50 nM.

As to `N#Cc1ccc(Cn2c(=O)oc3ccc(CC(=O)N[C@H](CN4CC[C@H](O)C4)c4ccccc4)cc32)cc1` [Example 59, 2-(3-(4-cyanobenzyl)-2-oxo-2,3-dihydrobenzo[d]oxazol-5-yl)-N-((S)-2-((S)-3-hydroxypyrrolidin-1-yl)-1-phenylethyl)acetamide], the melting point was found to be 194 °C. The same compound yielded an EC50 in data set [1] of at most 50 nM.

`Cn1c(=O)oc2ccc(CC(=O)N[C@H](CN3CCCC3)c3ccccc3)cc21` [Example 61, (S)-2-(3-methyl-2-oxo-2,3-dihydrobenzo[d]oxazol-5-yl)-N-(1-phenyl-2-(pyrrolidin-1-yl)ethyl)acetamide] showed a melting point of 105 to 107 °C. For the same compound, the concentration giving a half-maximal response (EC50) in data set [1] was in the range of 51 to 100 nM.

`CC(C)(C)OC(=O)COc1cccc([C@@H](CN2CCCC2)NC(=O)Cc2ccc3oc(=O)n(Cc4ccccc4)c3c2)c1` [Example 63, (S)-t-butyl-2-(3-(1-(2-(3-benzyl-2-oxo-2,3-dihydrobenzo[d]oxazol-5-yl)acetamido)-2-(pyrrolidin-1-yl)ethyl)phenoxy)acetate] yielded a melting point of 68 to 70 °C. The compound further came in with an EC50 in data set [1] of at most 50 nM.

Turning to `O=C(Cc1ccc2oc(=O)[nH]c2c1)N[C@H](CN1CC[C@H](O)C1)C1CCCCC1` [Example 67, N-((S)-1-cyclohexyl-2-((S)-3-hydroxypyrrolidin-1-yl)ethyl)-2-(2-oxo-2,3-dihydrobenzo[d]oxazol-5-yl)acetamide], the melting point was in the range of 173 to 174 °C. Also, the EC50 in data set [1] is at most 50 nM.

The compound `CN(C(=O)Cc1ccc2oc(=O)n(Cc3ccccc3)c2c1)[C@H](CN1CCCC1)c1cccc(OCC(=O)OC(C)(C)C)c1` [Example 68, (S)-tert-butyl-2-(3-(1-(2-(3-benzyl-2-oxo-2,3-dihydrobenzo[d]oxazol-5-yl)-N-methylacetamido)-2-(pyrrolidin-1-yl)ethyl)phenoxy)acetate] showed a melting point of 111 to 113 °C. Further, the EC50 in data set [1] is at most 50 nM.

In turn, `O=C1Cc2ccc(CC(=O)N[C@H](CN3CC[C@H](O)C3)C3CCCCC3)cc2N1` [Example 69, N-((S)-1-cyclohexyl-2-((S)-3-hydroxypyrrolidin-1-yl)ethyl)-2-(2-oxoindolin-6-yl)acetamide] yielded a melting point of 132 to 133 °C. In data set [1], this compound returned an EC50 of at most 50 nM.

As for `CN(C(=O)Cc1ccc2oc(=O)[nH]c2c1)[C@H](CN1CC[C@H](O)C1)C1CCCCC1` [Example 70, N-((S)-1-cyclohexyl-2-((S)-3-hydroxypyrrolidin-1-yl)ethyl)-N-methyl-2-(2-oxo-2,3dihydrobenzo[d]oxazol-5-yl)acetamide], the melting point lay within 130 to 131 °C. In data set [1], this compound gave an EC50 of at most 50 nM.

Regarding `N#Cc1cccc(Cn2c(=O)oc3ccc(CC(=O)N[C@H](CN4CC[C@H](O)C4)c4ccccc4)cc32)c1` [Example 72, 2-(3-(3-cyanobenzyl)-2-oxo-2,3-dihydrobenzo[d]oxazol-5-yl)-N-((S)-2-((S)-3-hydroxypyrrolidin-1-yl)-1-phenylethyl)acetamide], the melting point is 65 to 68 °C. Further, the EC50 in data set [1] is at most 50 nM.

Turning to `O=C(Cc1ccc2oc(=O)[nH]c2c1)N[C@H](CN1CCCC1)c1cccc(O)c1` [Example 84, (S)-N-(1-(3-hydroxyphenyl)-2-(pyrrolidin-1-yl)ethyl)-2-(2-oxo-2,3-dihydrobenzo[d]oxazol-5-yl)acetamide], the melting point fell in the range of 140 to 142 °C. The EC50 in data set [1] was at most 50 nM.

Compound `CN(C(=O)Cc1ccc2c(c1)NC(=O)C2)C(CN1CCCC1)c1cccc(OCC(=O)O)c1.Cl` (stereo not drawn) [Example 87, 2-(3-(1-(N-methyl-2-(2-oxoindolin-6-yl)acetamido)-2-(pyrrolidin-1-yl)ethyl)phenoxy)acetic acid hydrochloride] yielded a melting point of 169 to 171 °C. The same compound came in with an EC50 in data set [1] of at most 50 nM.

Regarding `CN(C(=O)Cc1ccc2oc(=O)n(Cc3cccc(C(N)=O)c3)c2c1)[C@H](CN1CC[C@H](O)C1)c1ccccc1` [Example 88, 3-((5-(2-(((S)-2-((S)-3-hydroxypyrrolidin-1-yl)-1-phenylethyl)(methyl)amino)-2-oxoethyl)-2-oxobenzo[d]oxazol-3(2H)-yl)methyl)benzamide], the melting point fell in the range of 181 to 183 °C. For the same compound, the EC50 in data set [1] is at most 50 nM.

In turn, `CN(C(=O)Cc1ccc2oc(=O)n(Cc3ccccc3)c2c1)[C@H](CN1CCCC1)c1cccc(O)c1` [Example 89, (S)-2-(3-benzyl-2-oxo-2,3-dihydrobenzo[d]oxazol-5-yl)-N-(1-(3-hydroxyphenyl)-2-(pyrrolidin-1-yl)ethyl)-N-methylacetamide] gave a melting point of 165 to 167 °C. Moreover, in data set [1], the EC50 fell in the range of 101 to 1000 nM.

Take `NC(=O)c1cccc(Cn2c(=O)oc3ccc(CC(=O)N[C@H](CN4CCCC4)c4ccccc4)cc32)c1` [Example 91, (S)-3-((2-oxo-5-(2-oxo-2-(1-phenyl-2-(pyrrolidin-1-yl)ethylamino)ethyl)benzo[d]oxazol-3(2H)-yl)methyl)benzamide]: the melting point lay within 171 to 172 °C. In data set [1], this compound came in with an EC50 of at most 50 nM.

For `Cl.O=C(O)COc1cccc(C(CN2CCCC2)NC(=O)Cc2ccc3c(c2)NC(=O)C3)c1` (stereo not drawn) [Example 92, 2-(3-(1-(2-(2-oxoindolin-6-yl)acetamido)-2-(pyrrolidin-1-yl)ethyl)phenoxy)acetic acid], the melting point was in the range of 104 to 106 °C. In addition, in data set [1], the concentration giving a half-maximal response (EC50) is at most 50 nM.

Consider `CN(C(=O)Cc1ccc2oc(=O)[nH]c2c1)[C@H](CN1CCCC1)c1cccc(-c2nn[nH]n2)c1` [Example 93, (S)-N-(1-(3-(2H-tetrazol-5-yl)phenyl)-2-(pyrrolidin-1-yl)ethyl)-N-methyl-2-(2-oxo-2,3-dihydrobenzo[d]oxazol-5-yl)acetamide], for which the melting point fell in the range of 240 to 242 °C. For the same compound, in data set [1], the EC50 is at most 50 nM.

The compound `CN(C(=O)Cc1ccc2oc(=O)n(CC(=O)O)c2c1)[C@H](CN1CC[C@@H](O)C1)C1CCCCC1` [Example 97] had a melting point of 233 to 234 °C. Besides, the EC50 in data set [1] is at most 50 nM.

With `O=C(Cc1ccc2oc(=O)n(Cc3ccc(-c4nnn[nH]4)cc3)c2c1)N[C@H](CN1CC[C@H](O)C1)c1ccccc1` [Example 106, 2-(3-(4-(1H-tetrazol-5-yl)benzyl)-2-oxo-2,3-dihydrobenzo[d]oxazol-5-yl)-N-((S)-2-((S)-3-hydroxypyrrolidin-1-yl)-1-phenylethyl)acetamide], the melting point lay within 296 to 297 °C. This compound also yielded a concentration giving a half-maximal response (EC50) in data set [1] of at most 50 nM.

Consider `CN(C(=O)Cc1ccc2oc(=O)[nH]c2c1)[C@H](CN1CC[C@H](F)C1)c1cccc(-c2nn[nH]n2)c1` [Example 109, N-((S)-1-(3-(2H-tetrazol-5-yl)phenyl)-2-((S)-3-fluoropyrrolidin-1-yl)ethyl)-N-methyl-2-(2-oxo-2,3-dihydrobenzo[d]oxazol-5-yl)acetamide], for which the melting point was in the range of 133 to 134 °C. In data set [1], this compound displayed an EC50 of at most 50 nM.

`CN(C(=O)Cc1ccc2c(c1)NC(=O)C2)[C@H](CN1CC[C@H](O)C1)c1cccc(-c2nn[nH]n2)c1` [Example 110, N-((S)-1-(3-(2H-tetrazol-5-yl)phenyl)-2-((S)-3-hydroxypyrrolidin-1-yl)ethyl)-N-methyl-2-(2-oxoindolin-6-yl)acetamide]: the melting point is 208 to 210 °C. This compound yielded a half-maximal effective concentration (EC50) in data set [1] of at most 50 nM.

(Values after patent US9487510B2, “Substituted heterocyclic acetamides as kappa opioid receptor (KOR) agonists” (Dr. Reddy's Laboratories Ltd., priority 2012, dated 2016).)
